Assay results: patent publication US8575376B2, “Steroide anionic compounds, method of their production, usage and pharmaceutical preparation involving them” (Ustav Organicke Chemie A Biochemie Akademie Ved Ceske …, priority 2009, dated 2013)

Assays:
[1] = target: T1, recombinant NR1/NR2B receptors (Rattus norvegicus, UniProt P35439+Q00960); assay: Patch-clamp, inhibition of glutamate responses of recombinant NMDA receptors in transfected HEK293 cells; assay type: cell-based; conditions: for IC50: calculated from relative inhibition with Hill's coefficient 1.2; for Relative inhibition effect (%): responses to 1 mM glutamate, -60 mV, HEK293 NR1-1a/NR2B, steroid 50, 100 or 200 μM
T1 construct: expressed in transfected cells; host or cells: HEK293 cells (ATCC CRL1573)
T1 sequence (Q00960 27-1482, other chains not shown): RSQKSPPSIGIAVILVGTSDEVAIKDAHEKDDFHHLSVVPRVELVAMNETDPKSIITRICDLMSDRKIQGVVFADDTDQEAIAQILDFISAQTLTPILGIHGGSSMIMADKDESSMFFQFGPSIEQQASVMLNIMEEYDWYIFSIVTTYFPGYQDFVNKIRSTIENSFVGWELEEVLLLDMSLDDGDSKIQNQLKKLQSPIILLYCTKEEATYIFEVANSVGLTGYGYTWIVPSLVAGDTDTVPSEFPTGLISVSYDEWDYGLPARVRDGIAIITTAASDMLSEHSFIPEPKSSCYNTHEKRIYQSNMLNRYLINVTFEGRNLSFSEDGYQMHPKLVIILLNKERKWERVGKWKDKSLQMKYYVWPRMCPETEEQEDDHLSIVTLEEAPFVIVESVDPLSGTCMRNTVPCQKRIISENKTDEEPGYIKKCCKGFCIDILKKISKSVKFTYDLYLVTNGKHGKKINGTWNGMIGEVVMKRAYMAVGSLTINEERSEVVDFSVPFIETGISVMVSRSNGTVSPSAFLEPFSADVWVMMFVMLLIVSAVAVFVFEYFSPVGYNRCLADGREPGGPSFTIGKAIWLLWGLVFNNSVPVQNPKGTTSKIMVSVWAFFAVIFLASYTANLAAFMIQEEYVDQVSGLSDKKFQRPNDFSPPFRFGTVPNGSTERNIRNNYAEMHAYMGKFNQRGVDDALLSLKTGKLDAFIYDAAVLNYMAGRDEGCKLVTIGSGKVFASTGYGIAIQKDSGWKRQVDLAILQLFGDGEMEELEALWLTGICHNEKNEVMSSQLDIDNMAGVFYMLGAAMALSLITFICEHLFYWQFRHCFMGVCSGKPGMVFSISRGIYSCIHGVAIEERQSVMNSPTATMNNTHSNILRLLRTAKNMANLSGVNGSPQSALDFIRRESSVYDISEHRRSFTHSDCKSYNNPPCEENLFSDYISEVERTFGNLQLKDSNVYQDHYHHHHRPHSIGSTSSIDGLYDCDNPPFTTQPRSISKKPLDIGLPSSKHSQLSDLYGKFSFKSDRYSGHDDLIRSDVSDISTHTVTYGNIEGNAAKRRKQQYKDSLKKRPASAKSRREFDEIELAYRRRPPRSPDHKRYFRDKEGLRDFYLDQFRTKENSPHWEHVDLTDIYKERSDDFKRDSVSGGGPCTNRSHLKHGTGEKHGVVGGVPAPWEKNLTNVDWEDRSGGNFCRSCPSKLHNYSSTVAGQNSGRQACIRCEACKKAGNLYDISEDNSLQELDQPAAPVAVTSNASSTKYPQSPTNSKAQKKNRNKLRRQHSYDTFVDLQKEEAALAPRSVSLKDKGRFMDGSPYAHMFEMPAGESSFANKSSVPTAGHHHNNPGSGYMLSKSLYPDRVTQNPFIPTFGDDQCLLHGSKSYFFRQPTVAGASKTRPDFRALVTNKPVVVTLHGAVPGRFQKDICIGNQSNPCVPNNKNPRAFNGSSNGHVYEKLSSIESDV

[2] = target: T1, recombinant NR1/NR2B receptors; conditions: 100 μM pregnanolone sulphate, recombinant NR1/NR2B receptors (Petrovic et al., 2005); listed as preganolone sulphate; cited from earlier work
[3] = tested on: NMDA receptor on hippocampal neurons; conditions: 100 μM pregnanolone sulphate, responses to 100 μM NMDA, hippocampal neurons (Petrovic et al., 2005); cited from earlier work
[4] = tested on: C6 glioma cell line; assay: Growth of glioma cells in culture; assay type: cell-based; conditions: 0.1 and 1 μg in 50 ml β-cyclodextrine solution, 3 div + 6 days
Procedure: The effect of compound from the example 9 (the model molecule) on growth of glioma cells was studied on C6 glioma cell line (ATTC, Rockville). The model molecule was tested at doses of 0.1 and 1 μg dissolved in 50 ml of β-cyclodextrine solution. Parallel control groups were administered by cholesterol at doses of 0.1 and 1 μg dissolved in 50 ml of β-cyclodextrine solution. The last group included in the experiment was left intact without any application.
The cells were cultivated in vitro for 3 days (div). Afterwards tested molecule was applied and the cell culture was studied for additional 6 days. Olympus microscope with phase contrast and 200× magnification was used for the cell monitoring.

[5] = tested on: rats; assay: Active allothetic place avoidance (AAPA) task, compound applied alone; assay type: in vivo, rat
Procedure: The effect of compound from Example 9 on cognitive behaviors and locomotion was assessed using active allothetic place avoidance (AAPA) task, which requires intact hippocampi and ability of animals to navigate in space using distinct reference frames (spatial navigation and “cognitive coordination”) (Wesierska et al., 2005) and it also allows measuring changes in the accompanying locomotor activity. AAPA task training involves animals trained to move over a slowly rotating uniform circular arena, on which a prohibited sector is defined, entering which is punished by a mild footshock. A shock sector and its position can be determined solely by its relationship to distal orienting cues in the room (Stuchlik et al., 2008).
This task is highly dependent upon hippocampal formation, with unilateral reversible ablation of this structure with TTX leading to avoidance deficit (Cimadevilla et al., 2001). Animals solving this task should walk in a direction opposite to arena rotation; otherwise it would be repeatedly brought to a fixed sector by arena rotation. We conducted 4 acquisition session of AAPA task, during which the sector location was always reinforced and remained stable throughout the training. Each session lasted 20 min.
Control animals obtained saline intraperitoneally (i.p.) whilst experimental groups received subcutaneous (s.c.) injections of the compound from Example 9 at doses 1 mg/kg and 10 mg/kg (dissolved in cyclodextrin). Solution of compound from Example 9 (1 mg/2 ml or 10 mg/2 ml in cyclodextrin) was applied s.c. at a volume 2 ml/kg of body weight (b.w.). Intraperitonal application of dizocilpine (a non-competitive NMDA receptor antagonist; showing significant neuroprotective activity but exerting cognition-disturbing and psychotomimetic effects) was used as a positive control. Dizocilpine was applied at doses 0.1 mg/kg, 0.2 mg/kg and 0.3 mg/kg. It is worth noting that dizocilpine (albeit its experimental neuroprotective activity) is often used to model schizophrenia-like behaviors in […] and it has been repeatedly shown to exert a dose-dependent learning deficit and hyperlocomotion.

[6] = tested on: rats; assay: Open-field locomotion in MK-801 animal model of schizophrenia; assay type: in vivo, rat; conditions: substance alone; Example 9 0.1 and 1 mg/kg, MK-801 0.1 mg/kg
Procedure: The effect of the compound from example 9 in doses of 0.1 mg/kg and 1 mg/kg on locomotor activity in open field test was evaluated. Locomotor activity expressed as a total distance travelled during 30 min exploration of a box (68×68×30 cm) located in a sound proof room was measured using a video tracking system for automation of the behavioural experiments (Noldus, EthoVision, Version 2.1.).

[7] = Example 9 1 and 10 mg/kg s.c., dizocilpine 0.1-0.3 mg/kg i.p.

For `CC(=O)[C@H]1CC[C@H]2[C@@H]3CC[C@@H]4C[C@H](OC(=O)CCCCC(=O)O)CC[C@]4(C)[C@H]3CC[C@]12C` [Example 13, 20-Oxo-5β-pregnan-3α-yl-adipyl 1-ester], the IC50 [1] was 40 µM and the “Relative inhibition effect (%)” value [1] was 87.3 ± 8.9%.

For `CC(=O)[C@H]1CC[C@H]2[C@@H]3CC[C@@H]4C[C@H](OC(=O)[C@@H](N)CC(=O)O)CC[C@]4(C)[C@H]3CC[C@]12C` [Example 3, 20-Oxo-5β-pregnan-3α-yl L-aspartyl 1-ester], the IC50 [1] was 51 µM and the “Relative inhibition effect (%)” value [1] was 83.6 ± 2.7%.

For `CC(=O)[C@H]1CC[C@H]2[C@@H]3CC[C@@H]4C[C@H](OC(=O)/C=C\C(=O)O)CC[C@]4(C)[C@H]3CC[C@]12C` [Example 17, 20-Oxo-5β-pregnan-3α-yl (Z)-3-carboxyprop-2-enoate], the IC50 [1] was 14 µM and the “Relative inhibition effect (%)” value [1] was 81.6 ± 2.7%.

In the case of `COC(=O)CN[C@@H]1CC[C@@]2(C)[C@H](CC[C@@H]3[C@@H]2CC[C@]2(C)[C@@H](C(C)=O)CC[C@@H]32)C1.Cl` [Example 26, N-(20-Oxo-5β-pregnan-3α-yl) glycine methylester hydrochloride], the IC50 [1] is reported as 250 µM and the “Relative inhibition effect (%)” value [1] is reported as 43.4 ± 3.4%.

For “20-oxo-5beta-pregnan-3alpha-yl sulfate [Pregnanolone sulphate]”, the IC50 [1] is listed as 55 µM, the mean inhibition effect [2] is listed as 67.2±8.2% and the mean inhibition effect [3] is listed as 71.3±5.0%.

In the case of `CC(C)CCC[C@@H](C)[C@H]1CC[C@H]2[C@@H]3CC=C4C[C@@H](O)CC[C@]4(C)[C@H]3CC[C@]12C` [cholesterol, reference compound], the “effect on growth of glioma cells” value [4] is reported as “slightly apparent”.

For `CC(=O)[C@H]1CC[C@H]2[C@@H]3CC[C@@H]4C[C@H](OC(=O)CCCCCCC(=O)O)CC[C@]4(C)[C@H]3CC[C@]12C` [Example 15, 20-Oxo-5β-pregnan-3α-yl 7-carboxyheptanoate], the IC50 [1] was 175 µM and the “Relative inhibition effect (%)” value [1] was 54.0 ± 10.8%.

In the case of `CC(=O)[C@H]1CC[C@H]2[C@@H]3CC[C@@H]4C[C@H](OC(=O)C(C)CC(=O)O)CC[C@]4(C)[C@H]3CC[C@]12C` (stereo partly drawn) [Example 19, 20-Oxo-5β-pregnan-3α-yl 3-carboxy-ξ-methyl-propanoate], the IC50 [1] is reported as 30 µM and the “Relative inhibition effect (%)” value [1] is reported as 80.9 ± 3.6%.

For `C[C@]12N[C@H](Cc3ccccc31)c1ccccc12` [dizocilpine], the “maximum time avoided in AAPA” value [5, 7] was “significantly decreased rats' performance”, the “number of entrances into shock sector in AAPA” value [5, 7] was “dose-dependently disrupted this parameter” and the “total distance traveled in AAPA (locomotor activity)” value ([5]; Example 9 1 and 10 mg/kg s.c., dizocilpine 0.1-0.3 mg/kg i.p., 20-min sessions) was “dose-dependently and consistently stimulated the locomotor activity”. For the same compound, the “locomotor activity in AAPA” value ([5]; dizocilpine 0.1 mg/kg i.p.) was “hyperlocomotion was not observed”, the “locomotor activity in AAPA” value ([5]; dizocilpine 0.2 mg/kg i.p.) was “marked locomotor hyperactivity” and the “locomotor activity in AAPA” value ([5]; dizocilpine 0.3 mg/kg i.p.) was “even more dramatic hyperlocomotion”. For the same compound, the “locomotion in open field (total distance, 30 min)” value [6] was “hyperlocomotion state induced by MK-801”.

In the case of `CC(=O)[C@H]1CC[C@H]2[C@@H]3CC[C@@H]4C[C@H](OC(=O)CCCCCC(=O)O)CC[C@]4(C)[C@H]3CC[C@]12C` [Example 14, 20-Oxo-5β-pregnan-3α-yl 6-carboxyhexanoate], the IC50 [1] is reported as 135 µM and the “Relative inhibition effect (%)” value [1] is reported as 61.5 ± 10.6%.
